The source of these data is patent US20260028365A1 (BIOGEN MA INC., priority 2022, published 2026).

The target in one assay is Tyk2 (Homo sapiens (Human), UniProt P29597). Kind of assay: pSTAT4 Cell Assay (MSD, NK92 cells). It counts as cell-based. The conditions noted are these: MSD.
The next assay deals with JAK2 (Homo sapiens (Human), UniProt O60674). Briefly: pSTAT5 Cell Assay (MSD, TF1 cells). It counts as cell-based. The note with it: IL-3 stimulation, MSD. As to the method: Compounds of the disclosure were assessed for their ability to inhibit the JAK2 kinase activity on STAT5 utilizing an MSD-platform plate-based assay format. TF1 cells natively expressing STAT5 and JAK2 were serum-starved to reduce background phosphorylation levels, then cells were treated with compounds of disclosure for 1 hour with a 10-point four-fold dilution series starting at 10 μM. Cells were then stimulated with 30 ng/mL IL-3 for 15 minutes. Cells were then lysed and pSTAT5 levels were quantitated using an MSD plate-based assay with anti-STAT5 antibodies. The data were normalized and the percent activity versus log concentration of compound was fitted with a 4-parameter logistic model to generate a curve and an IC50 value.

In a further assay the target is JAK1 (Homo sapiens (Human), UniProt P23458). Briefly: pSTAT3 Cell Assay (MSD, TF1 cells). It counts as cell-based. The conditions noted are these: IL-6 stimulation, MSD. The gist of the method: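 Serum-starved TF1 cells with endogenous JAK1/STAT3 were pretreated 1 h with compound in a 10-point four-fold dilution series from 10 μM, then stimulated with 30 ng/mL IL-6 for 15 min. pSTAT3 in lysates was quantified by MSD immunoassay, and IC50 came from 4-parameter logistic fits.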

Another assay concerns the target JH2 domain of human Tyk2 (Homo sapiens (Human), UniProt P29597). Briefly: JH2 Biochemical Assay (TR-FRET probe displacement). Type of assay: binding. The note with it: TR-FRET probe displacement, JH2 domain of human Tyk2.

Chain of JAK1 (P23458 whole entry): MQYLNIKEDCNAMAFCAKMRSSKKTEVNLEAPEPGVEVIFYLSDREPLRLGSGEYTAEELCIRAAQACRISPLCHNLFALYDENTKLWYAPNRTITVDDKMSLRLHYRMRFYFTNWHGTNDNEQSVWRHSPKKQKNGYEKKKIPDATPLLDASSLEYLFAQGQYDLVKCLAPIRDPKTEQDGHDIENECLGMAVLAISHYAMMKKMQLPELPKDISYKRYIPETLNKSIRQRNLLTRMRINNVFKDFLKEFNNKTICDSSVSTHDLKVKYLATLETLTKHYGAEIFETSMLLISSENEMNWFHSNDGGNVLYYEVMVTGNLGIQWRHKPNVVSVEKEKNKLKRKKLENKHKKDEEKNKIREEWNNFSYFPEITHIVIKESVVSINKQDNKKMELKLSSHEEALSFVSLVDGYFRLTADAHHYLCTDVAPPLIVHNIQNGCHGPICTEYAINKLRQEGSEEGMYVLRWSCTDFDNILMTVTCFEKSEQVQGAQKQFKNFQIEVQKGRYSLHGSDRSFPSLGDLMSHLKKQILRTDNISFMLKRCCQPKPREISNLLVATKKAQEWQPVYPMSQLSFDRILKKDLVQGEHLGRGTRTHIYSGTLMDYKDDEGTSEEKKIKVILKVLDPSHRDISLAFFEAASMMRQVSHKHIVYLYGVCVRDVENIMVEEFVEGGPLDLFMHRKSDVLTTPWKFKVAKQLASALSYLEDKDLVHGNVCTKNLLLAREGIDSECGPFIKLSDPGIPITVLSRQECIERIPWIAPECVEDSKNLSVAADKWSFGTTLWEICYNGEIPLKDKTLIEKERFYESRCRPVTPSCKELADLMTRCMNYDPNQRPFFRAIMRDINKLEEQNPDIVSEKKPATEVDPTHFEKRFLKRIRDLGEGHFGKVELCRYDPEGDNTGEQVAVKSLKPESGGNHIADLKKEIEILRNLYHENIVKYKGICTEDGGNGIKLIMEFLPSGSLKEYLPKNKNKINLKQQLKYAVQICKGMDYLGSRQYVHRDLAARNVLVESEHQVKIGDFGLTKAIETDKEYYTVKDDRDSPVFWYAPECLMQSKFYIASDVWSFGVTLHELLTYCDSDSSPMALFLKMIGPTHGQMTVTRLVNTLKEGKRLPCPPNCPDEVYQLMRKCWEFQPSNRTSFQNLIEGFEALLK
Chain of JAK2 (O60674 whole entry): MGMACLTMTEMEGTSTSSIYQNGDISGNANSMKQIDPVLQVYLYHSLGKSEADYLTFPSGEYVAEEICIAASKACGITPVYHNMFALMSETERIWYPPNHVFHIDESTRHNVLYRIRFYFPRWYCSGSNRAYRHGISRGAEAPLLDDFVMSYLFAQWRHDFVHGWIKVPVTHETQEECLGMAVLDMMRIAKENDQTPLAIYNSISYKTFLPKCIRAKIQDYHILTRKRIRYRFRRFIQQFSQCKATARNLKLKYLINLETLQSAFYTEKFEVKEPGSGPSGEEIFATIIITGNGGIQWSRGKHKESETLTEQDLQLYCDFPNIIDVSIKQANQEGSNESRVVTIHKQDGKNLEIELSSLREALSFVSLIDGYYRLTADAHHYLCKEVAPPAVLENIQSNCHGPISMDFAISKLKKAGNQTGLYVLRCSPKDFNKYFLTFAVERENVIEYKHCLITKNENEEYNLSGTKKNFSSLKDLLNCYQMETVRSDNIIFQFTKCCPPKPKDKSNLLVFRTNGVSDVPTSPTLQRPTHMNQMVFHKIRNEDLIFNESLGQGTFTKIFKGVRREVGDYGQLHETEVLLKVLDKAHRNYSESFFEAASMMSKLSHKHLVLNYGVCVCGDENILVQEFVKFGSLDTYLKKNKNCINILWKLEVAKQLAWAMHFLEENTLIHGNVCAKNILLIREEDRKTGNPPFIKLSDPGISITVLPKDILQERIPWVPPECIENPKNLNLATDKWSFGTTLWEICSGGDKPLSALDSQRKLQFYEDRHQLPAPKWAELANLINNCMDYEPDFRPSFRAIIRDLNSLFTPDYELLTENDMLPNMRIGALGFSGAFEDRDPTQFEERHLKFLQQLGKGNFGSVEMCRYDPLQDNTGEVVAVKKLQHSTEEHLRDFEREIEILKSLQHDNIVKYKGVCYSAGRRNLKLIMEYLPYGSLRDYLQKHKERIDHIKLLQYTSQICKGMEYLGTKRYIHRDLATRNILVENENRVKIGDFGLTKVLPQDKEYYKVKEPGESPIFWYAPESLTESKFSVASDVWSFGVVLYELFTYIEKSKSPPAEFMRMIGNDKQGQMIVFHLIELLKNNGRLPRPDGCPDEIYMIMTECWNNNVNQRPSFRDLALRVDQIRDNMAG
Chain of JH2 domain of human Tyk2 (P29597 575-876): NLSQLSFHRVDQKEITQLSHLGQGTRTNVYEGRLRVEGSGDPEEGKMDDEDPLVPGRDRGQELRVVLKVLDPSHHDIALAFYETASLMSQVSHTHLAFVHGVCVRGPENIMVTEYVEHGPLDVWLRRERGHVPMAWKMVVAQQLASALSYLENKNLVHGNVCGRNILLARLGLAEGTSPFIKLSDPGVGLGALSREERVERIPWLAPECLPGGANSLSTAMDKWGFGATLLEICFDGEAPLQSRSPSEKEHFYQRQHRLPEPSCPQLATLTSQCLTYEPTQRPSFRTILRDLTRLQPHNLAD
Chain of Tyk2 (P29597 whole entry): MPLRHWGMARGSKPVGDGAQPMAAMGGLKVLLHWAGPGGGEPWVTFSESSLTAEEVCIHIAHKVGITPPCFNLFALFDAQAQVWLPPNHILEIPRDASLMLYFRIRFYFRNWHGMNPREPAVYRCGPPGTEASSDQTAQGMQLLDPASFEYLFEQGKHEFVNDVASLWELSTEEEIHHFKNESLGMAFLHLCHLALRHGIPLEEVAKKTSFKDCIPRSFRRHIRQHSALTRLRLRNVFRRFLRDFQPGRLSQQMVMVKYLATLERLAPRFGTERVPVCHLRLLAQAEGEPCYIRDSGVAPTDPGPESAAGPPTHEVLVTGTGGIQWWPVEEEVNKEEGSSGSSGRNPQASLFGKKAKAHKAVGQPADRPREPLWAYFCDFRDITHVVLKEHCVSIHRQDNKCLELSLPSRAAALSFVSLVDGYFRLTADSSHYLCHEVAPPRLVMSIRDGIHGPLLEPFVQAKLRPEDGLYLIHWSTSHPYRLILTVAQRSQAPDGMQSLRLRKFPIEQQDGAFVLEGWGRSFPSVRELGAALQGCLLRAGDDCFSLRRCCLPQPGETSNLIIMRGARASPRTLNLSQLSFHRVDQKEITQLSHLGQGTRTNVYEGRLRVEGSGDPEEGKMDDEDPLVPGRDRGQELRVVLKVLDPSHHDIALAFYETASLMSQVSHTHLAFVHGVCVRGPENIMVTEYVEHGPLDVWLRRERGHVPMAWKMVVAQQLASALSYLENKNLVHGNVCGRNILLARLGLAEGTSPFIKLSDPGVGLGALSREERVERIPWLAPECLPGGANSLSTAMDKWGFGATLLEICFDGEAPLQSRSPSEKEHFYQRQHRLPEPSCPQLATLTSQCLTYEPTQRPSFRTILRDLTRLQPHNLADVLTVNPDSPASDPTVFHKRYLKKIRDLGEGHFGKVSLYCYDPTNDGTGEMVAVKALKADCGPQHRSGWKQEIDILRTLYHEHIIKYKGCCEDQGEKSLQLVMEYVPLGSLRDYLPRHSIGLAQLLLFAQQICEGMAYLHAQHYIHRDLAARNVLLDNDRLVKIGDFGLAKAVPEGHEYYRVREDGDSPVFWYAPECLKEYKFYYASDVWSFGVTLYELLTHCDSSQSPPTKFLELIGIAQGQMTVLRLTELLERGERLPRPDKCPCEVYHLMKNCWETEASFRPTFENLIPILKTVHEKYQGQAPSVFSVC

Regarding `CCOc1cnc(NC(C)=O)cc1Nc1cc(O[C@H]2C[C@H](OC)C2)nc(C(C)(F)F)n1` [Example 16, N-(4-((2-(1,1-difluoroethyl)-6-((1r,3r)-3-methoxycyclobutoxy)pyrimidin-4-yl)amino)-5-ethoxypyridin-2-yl)acetamide], the IC50 – broadly, the concentration that inhibits the measured activity by half – is at most 10 nM against Tyk2, at least 1000 nM against JAK2, at least 1000 nM against JAK1 and at most 10 nM at JH2 domain of human Tyk2.

Turning to `COc1cnc(NC(C)=O)cc1Nc1cc(C2CC2)nc(C(C)(F)F)n1` [Example 17, N-(4-((6-cyclopropyl-2-(1,1-difluoroethyl)pyrimidin-4-yl)amino)-5-methoxypyridin-2-yl)acetamide], the IC50 against Tyk2 is 10 to 100 nM; at JAK2 it was at least 1000 nM; on JAK1, at least 1000 nM; on JH2 domain of human Tyk2, at most 10 nM.

As for `COc1cnc(NC(C)=O)cc1Nc1cc(O[C@H]2C[C@H](OC)C2)nc(C(C)(F)F)n1` [Example 19, N-(4-((2-(1,1-difluoroethyl)-6-((1r,3r)-3-methoxycyclobutoxy)pyrimidin-4-yl)amino)-5-methoxypyridin-2-yl)acetamide], the IC50 at Tyk2 is 10 to 100 nM; against JAK2 it was at least 1000 nM; at JAK1, at least 1000 nM; at JH2 domain of human Tyk2 it was at most 10 nM.

For `CCc1cc(Nc2cc(NC(C)=O)ncc2OCCOC)nc(C(C)(F)F)n1` [Example 20, N-(4-((2-(1,1-difluoroethyl)-6-ethylpyrimidin-4-yl)amino)-5-(2-methoxyethoxy)pyridin-2-yl)acetamide], the IC50 is at most 10 nM at Tyk2, at least 1000 nM on JAK2, at least 1000 nM against JAK1 and at most 10 nM on JH2 domain of human Tyk2.

In the case of `COCCOc1cnc(NC(C)=O)cc1Nc1cc(OC)nc(C(C)(F)F)n1` [Example 21, N-(4-((2-(1,1-difluoroethyl)-6-methoxypyrimidin-4-yl)amino)-5-(2-methoxyethoxy)pyridin-2-yl)acetamide], the IC50 at Tyk2 was 10 to 100 nM; against JAK2, at least 1000 nM; against JAK1, at least 1000 nM; on JH2 domain of human Tyk2, at most 10 nM.

As for `COCCOc1cnc(NC(C)=O)cc1Nc1cc(C)nc(C(C)(F)F)n1` [Example 22, N-(4-((2-(1,1-difluoroethyl)-6-methylpyrimidin-4-yl)amino)-5-(2-methoxyethoxy)pyridin-2-yl)acetamide], the IC50 on Tyk2 was at most 10 nM; against JAK2, at least 1000 nM; on JAK1, at least 1000 nM; on JH2 domain of human Tyk2, at most 10 nM.

As to `CC(=O)Nc1cc(Nc2cc(C)nc(C(C)(F)F)n2)c(C2CC2)cn1` [Example 29, N-(5-cyclopropyl-4-((2-(1,1-difluoroethyl)-6-methylpyrimidin-4-yl)amino)pyridin-2-yl)acetamide], the IC50 is 100 to 1000 nM at Tyk2, at least 1000 nM against JAK2, at least 1000 nM on JAK1 and at most 10 nM at JH2 domain of human Tyk2.

With `CCOc1cnc(NC(C)=O)cc1Nc1cc(OCCOC)nc(C(C)(F)F)n1` [Example 32, N-(4-((2-(1,1-difluoroethyl)-6-(2-methoxyethoxy)pyrimidin-4-yl)amino)-5-ethoxypyridin-2-yl)acetamide], the IC50 against Tyk2 is 10 to 100 nM; on JAK2, at least 1000 nM; on JAK1 it was at least 1000 nM; at JH2 domain of human Tyk2, at most 10 nM.

As to `CCc1cc(Nc2cc(NC(C)=O)ncc2OC)nc(C(C)(F)F)n1` [Example 36, N-(4-((2-(1,1-difluoroethyl)-6-ethylpyrimidin-4-yl)amino)-5-methoxypyridin-2-yl)acetamide], the half-maximal inhibitory concentration (IC50) is 10 to 100 nM against Tyk2, at least 1000 nM against JAK2, at least 1000 nM against JAK1 and at most 10 nM at JH2 domain of human Tyk2.

As to `COCCOc1cc(Nc2cc(NC(C)=O)ncc2OC)nc(C(C)(F)F)n1` [Example 37, N-(4-((2-(1,1-difluoroethyl)-6-(2-methoxyethoxy)pyrimidin-4-yl)amino)-5-methoxypyridin-2-yl)acetamide], the IC50 against Tyk2 was 100 to 1000 nM; at JAK2, at least 1000 nM; at JAK1, at least 1000 nM; at JH2 domain of human Tyk2, at most 10 nM.

With `CC(=O)Nc1cc(Nc2cc(C)nc(C(C)(F)F)n2)c(OC(C)C)cn1` [Example 39, N-(4-((2-(1,1-difluoroethyl)-6-methylpyrimidin-4-yl)amino)-5-isopropoxypyridin-2-yl)acetamide], the IC50 is 10 to 100 nM at Tyk2, at least 1000 nM on JAK2, at least 1000 nM against JAK1 and at most 10 nM at JH2 domain of human Tyk2.

With `COc1cnc(NC(C)=O)cc1Nc1cc(C)nc(C(C)(F)F)n1` [Example 46, N-(4-((2-(1,1-difluoroethyl)-6-methylpyrimidin-4-yl)amino)-5-methoxypyridin-2-yl)acetamide], the IC50 is 10 to 100 nM on Tyk2, at least 1000 nM against JAK2, at least 1000 nM on JAK1 and at most 10 nM at JH2 domain of human Tyk2.

`[2H]C([2H])([2H])C([2H])([2H])Oc1cnc(NC(C)=O)cc1Nc1cc(C)nc(C(C)(F)F)n1` [Example 49, N-(4-((2-(1,1-difluoroethyl)-6-methylpyrimidin-4-yl)amino)-5-(ethoxy-d5)pyridin-2-yl)acetamide]: the half-inhibitory concentration (IC50) on Tyk2 is 10 to 100 nM; against JAK2, at least 1000 nM; at JAK1, at least 1000 nM; on JH2 domain of human Tyk2, at most 10 nM.

Regarding `COc1cc(Nc2cc(NC(C)=O)ncc2-c2ccn(C)n2)nc(C(C)(F)F)n1` [Example 50, N-(4-((2-(1,1-difluoroethyl)-6-methoxypyrimidin-4-yl)amino)-5-(1-methyl-1H-pyrazol-3-yl)pyridin-2-yl)acetamide], the half-maximal inhibitory concentration (IC50) against Tyk2 was at most 10 nM; against JAK2, at least 1000 nM; against JAK1 it was at least 1000 nM; at JH2 domain of human Tyk2 it was at most 10 nM.

In the case of `COc1cnc(NC(C)=O)cc1Nc1cc(C(C)C)nc(C(C)(F)F)n1` [Example 52, N-(4-((2-(1,1-difluoroethyl)-6-isopropylpyrimidin-4-yl)amino)-5-methoxypyridin-2-yl)acetamide], the IC50 against Tyk2 is 10 to 100 nM; on JAK2, at least 1000 nM; against JAK1, at least 1000 nM; on JH2 domain of human Tyk2 it was at most 10 nM.

Consider `COCCOc1cnc(NC(C)=O)cc1Nc1cc(C2CC2)nc(C(C)(F)F)n1` [Example 66, N-(4-((6-cyclopropyl-2-(1,1-difluoroethyl)pyrimidin-4-yl)amino)-5-(2-methoxyethoxy)pyridin-2-yl)acetamide], for which the IC50 against Tyk2 is at most 10 nM; against JAK2, at least 1000 nM; against JAK1 it was at least 1000 nM; on JH2 domain of human Tyk2, at most 10 nM.

On to `COCCOc1cnc(NC(C)=O)cc1Nc1cncc(C(C)(F)F)n1` [Example 67, N-(4-((6-(1,1-difluoroethyl)pyrazin-2-yl)amino)-5-(2-methoxyethoxy)pyridin-2-yl)acetamide], for which the IC50 is 10 to 100 nM against Tyk2, at least 1000 nM on JAK2, at least 1000 nM at JAK1 and at most 10 nM on JH2 domain of human Tyk2.

Take `CCc1cc(Nc2cc(NC(C)=O)ncc2OCCCOC)nc(C(C)(F)F)n1` [Example 69, N-(4-((2-(1,1-difluoroethyl)-6-ethylpyrimidin-4-yl)amino)-5-(3-methoxypropoxy)pyridin-2-yl)acetamide]: the IC50 against Tyk2 is 10 to 100 nM; at JAK2, at least 1000 nM; at JAK1 it was at least 1000 nM; at JH2 domain of human Tyk2, at most 10 nM.

Take `COCCOc1cnc(NC(C)=O)cc1Nc1cc(OC(C)C)nc(C(C)(F)F)n1` [Example 76, N-(4-((2-(1,1-difluoroethyl)-6-isopropoxypyrimidin-4-yl)amino)-5-(2-methoxyethoxy)pyridin-2-yl)acetamide]: the IC50 at Tyk2 was at most 10 nM; at JAK2 it was at least 1000 nM; on JAK1, at least 1000 nM; on JH2 domain of human Tyk2, at most 10 nM.

Take `CCOc1cc(Nc2cc(NC(C)=O)ncc2OCCOC)nc(C(C)(F)F)n1` [Example 77, N-(4-((2-(1,1-difluoroethyl)-6-ethoxypyrimidin-4-yl)amino)-5-(2-methoxyethoxy)pyridin-2-yl)acetamide]: the IC50 is at most 10 nM against Tyk2, at least 1000 nM on JAK2, at least 1000 nM at JAK1 and at most 10 nM at JH2 domain of human Tyk2.

In the case of `CCc1cc(Nc2cc(NC(=O)OC)ncc2OCCOC)nc(C(C)(F)F)n1` [Example 87, methyl (4-((2-(1,1-difluoroethyl)-6-ethylpyrimidin-4-yl)amino)-5-(2-methoxyethoxy)pyridin-2-yl)carbamate], the IC50 is at most 10 nM on Tyk2, at least 1000 nM on JAK2, at least 1000 nM against JAK1 and at most 10 nM at JH2 domain of human Tyk2.

As for `CCC(=O)Nc1cc(Nc2cc(CC)nc(C(C)(F)F)n2)c(OCCOC)cn1` [Example 88, N-(4-((2-(1,1-difluoroethyl)-6-ethylpyrimidin-4-yl)amino)-5-(2-methoxyethoxy)pyridin-2-yl)propionamide], the IC50 against Tyk2 was at most 10 nM; on JAK2 it was at least 1000 nM; at JAK1, at least 1000 nM; on JH2 domain of human Tyk2, at most 10 nM.

Take `COc1cnc(NC(C)=O)cc1Nc1cc(OC2CC2)nc(C(C)(F)F)n1` [Example 91, N-(4-((6-cyclopropoxy-2-(1,1-difluoroethyl)pyrimidin-4-yl)amino)-5-methoxypyridin-2-yl)acetamide]: the IC50 against Tyk2 was 10 to 100 nM; at JAK2, at least 1000 nM; against JAK1 it was at least 1000 nM; on JH2 domain of human Tyk2, at most 10 nM.
